Laboratory results taken from ChEMBL document CHEMBL1201862, “PubChem BioAssay data set” (2004).
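A five-concentration, 48-hour dose response in 96-well plates underlies each endpoint, interpolated linearly between surrounding concentrations. Here, GI50 denotes the concentration required for 50% inhibition of growth.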 Active and inactive are the calls of the source. Cut-off read from the data, not from the text of the source: active = GI50 up to about 1.1 µM and inactive = higher.

Legend:
Assay in all cases: DTP human tumour cell line panel, 48 h
[1] = test system: LOX IMVI
[2] = test system: OVCAR-5
[3] = test system: OVCAR-3
[4] = test system: SNB-19
[5] = test system: CCRF-CEM
[6] = test system: BT-549
[7] = test system: SW-620
[8] = test system: T47D
[9] = test system: SF-539
[10] = test system: MDA-MB-435
[11] = test system: Hs-578T
[12] = test system: A549
[13] = test system: SN12C
[14] = test system: SR
[15] = test system: HT-29
[16] = test system: K562
[17] = test system: MOLT-4
[18] = test system: ACHN
[19] = test system: A498
[20] = test system: M14
[21] = test system: COLO 205
[22] = test system: UACC-62
[23] = test system: Malme-3M
[24] = test system: MDA-MB-231
[25] = test system: 786-0
[26] = test system: HCT-15
[27] = test system: TK-10
[28] = test system: HL-60
[29] = test system: MCF7
[30] = test system: SF-268
[31] = test system: KM12
[32] = test system: SNB-75
[33] = test system: SK-OV-3
[34] = test system: UO-31
[35] = test system: NCI-H226
[36] = test system: NCI-H23
[37] = test system: HOP-62
[38] = test system: UACC-257
[39] = test system: NCI/ADR-RES
[40] = test system: IGROV-1
[41] = test system: SK-MEL-5
[42] = test system: HCT-116
[43] = test system: EKVX
[44] = test system: CAKI-1
[45] = test system: SF-295
[46] = test system: MDA-N
[47] = test system: DU-145
[48] = test system: U-251
[49] = test system: OVCAR-4
[50] = test system: RPMI-8226
[51] = test system: HCC 2998
[52] = test system: RXF 393
[53] = test system: OVCAR-8
[54] = test system: HOP-92
[55] = test system: SK-MEL-2
[56] = test system: NCI-H522
[57] = test system: SK-MEL-28
[58] = test system: NCI-H460
[59] = test system: PC-3

With `Cn1c(=O)c2c3ccccc3n(C)c2n(C)c1=O` the GI50 [1] was > 100 µM (inactive), the GI50 [2] was > 100 µM (inactive) and the GI50 [3] was > 100 µM (inactive). The GI50 [4] was > 100 µM (inactive), the GI50 [5] was > 100 µM (inactive) and the GI50 [6] was > 100 µM (inactive). For the same compound, the GI50 [7] was > 100 µM (inactive), the GI50 [8] was > 100 µM (inactive) and the GI50 [9] was > 100 µM (inactive). The GI50 [10] was > 100 µM (inactive), the GI50 [11] was > 100 µM (inactive) and the GI50 [12] was > 100 µM (inactive). The GI50 [13] was > 100 µM (inactive), the GI50 [14] was > 100 µM (inactive) and the GI50 [15] was > 100 µM (inactive). The GI50 [16] was > 100 µM (inactive), the GI50 [17] was > 100 µM (inactive) and the GI50 [18] was 97.9 µM (inactive). The GI50 [19] was > 100 µM (inactive), the GI50 [20] was > 100 µM (inactive) and the GI50 [21] was > 100 µM (inactive). The GI50 [22] was > 100 µM (inactive), the GI50 [23] was > 100 µM (inactive) and the GI50 [24] was > 100 µM (inactive). The GI50 [25] was > 100 µM (inactive), the GI50 [26] was > 100 µM and the GI50 [27] was > 100 µM (inactive). The GI50 [28] was > 100 µM (inactive), the GI50 [29] was > 100 µM (inactive) and the GI50 [30] was > 100 µM (inactive). For the same compound, the GI50 [31] was > 100 µM (inactive), the GI50 [32] was 1.26 µM (inactive) and the GI50 [33] was 22.3 µM (inactive). For the same compound, the GI50 [34] was > 100 µM (inactive), the GI50 [35] was > 100 µM (inactive) and the GI50 [36] was > 100 µM (inactive). The GI50 [37] was > 100 µM (inactive), the GI50 [38] was > 100 µM (inactive) and the GI50 [39] was > 100 µM (inactive). For the same compound, the GI50 [40] was > 100 µM (inactive), the GI50 [41] was > 100 µM (inactive) and the GI50 [42] was > 100 µM (inactive). The GI50 [43] was > 100 µM (inactive), the GI50 [44] was > 100 µM (inactive) and the GI50 [45] was > 100 µM (inactive). For the same compound, the GI50 [46] was > 100 µM (inactive), the GI50 [47] was > 100 µM (inactive) and the GI50 [48] was > 100 µM (inactive). For the same compound, the GI50 [49] was > 100 µM (inactive), the GI50 [50] was > 100 µM (inactive) and the GI50 [51] was > 100 µM (inactive). For the same compound, the GI50 [52] was > 100 µM (inactive), the GI50 [53] was > 100 µM (inactive) and the GI50 [54] was > 100 µM (inactive). For the same compound, the GI50 [55] was > 100 µM (inactive) and the GI50 [56] was > 100 µM (inactive).
For `CC(=O)Oc1ccc2cc(Oc3ccccc3)c(=O)oc2c1`, the GI50 [1] was 58.2 µM (inactive), the GI50 [2] was > 100 µM (inactive) and the GI50 [3] was 46 µM (inactive). For the same compound, the GI50 [4] was 93.5 µM (inactive), the GI50 [57] was > 100 µM (inactive) and the GI50 [6] was 39.9 µM (inactive). For the same compound, the GI50 [7] was > 100 µM (inactive), the GI50 [8] was 36.1 µM (inactive) and the GI50 [9] was > 100 µM (inactive). The GI50 [11] was > 100 µM (inactive), the GI50 [12] was 48.2 µM (inactive) and the GI50 [58] was 90.8 µM (inactive). For the same compound, the GI50 [13] was > 100 µM (inactive), the GI50 [14] was > 100 µM (inactive) and the GI50 [15] was > 100 µM (inactive). For the same compound, the GI50 [59] was > 100 µM (inactive), the GI50 [18] was > 100 µM (inactive) and the GI50 [19] was 67 µM (inactive). The GI50 [20] was > 100 µM (inactive), the GI50 [23] was > 100 µM (inactive) and the GI50 [24] was > 100 µM (inactive). For the same compound, the GI50 [25] was > 100 µM (inactive), the GI50 [26] was 53.3 µM and the GI50 [27] was 64.6 µM (inactive). The GI50 [28] was > 100 µM (inactive), the GI50 [29] was > 100 µM (inactive) and the GI50 [30] was > 100 µM (inactive). For the same compound, the GI50 [31] was > 100 µM (inactive), the GI50 [32] was 90.6 µM (inactive) and the GI50 [34] was 61 µM (inactive). For the same compound, the GI50 [35] was > 100 µM (inactive), the GI50 [36] was > 100 µM (inactive) and the GI50 [37] was 89.1 µM (inactive). For the same compound, the GI50 [38] was > 100 µM (inactive), the GI50 [40] was > 100 µM (inactive) and the GI50 [41] was 50.4 µM (inactive). The GI50 [42] was > 100 µM (inactive), the GI50 [43] was > 100 µM (inactive) and the GI50 [44] was > 100 µM (inactive). For the same compound, the GI50 [45] was > 100 µM (inactive), the GI50 [46] was > 100 µM (inactive) and the GI50 [47] was > 100 µM (inactive). The GI50 [48] was 69.7 µM (inactive), the GI50 [49] was 76.9 µM (inactive) and the GI50 [50] was > 100 µM (inactive). For the same compound, the GI50 [51] was > 100 µM (inactive), the GI50 [52] was > 100 µM (inactive) and the GI50 [53] was 80.9 µM (inactive). For the same compound, the GI50 [54] was 62.7 µM (inactive) and the GI50 [56] was 30.5 µM (inactive).
`NCCCN(CCCCN(CCCN)Cc1ccccc1)Cc1ccccc1` was tested, and the GI50 [1] was 19.3 µM (inactive), the GI50 [2] was 17.5 µM (inactive) and the GI50 [4] was 10.7 µM (inactive). For the same compound, the GI50 [5] was 30.3 µM (inactive), the GI50 [57] was > 100 µM (inactive) and the GI50 [6] was 79.6 µM (inactive). The GI50 [7] was > 100 µM (inactive), the GI50 [8] was > 100 µM (inactive) and the GI50 [9] was 27.6 µM (inactive). The GI50 [10] was 56.1 µM (inactive), the GI50 [11] was 13 µM (inactive) and the GI50 [12] was 74.5 µM (inactive). For the same compound, the GI50 [58] was 15.3 µM (inactive), the GI50 [13] was 16 µM (inactive) and the GI50 [15] was 17.3 µM (inactive). The GI50 [16] was 54.2 µM (inactive), the GI50 [17] was 20.1 µM (inactive) and the GI50 [18] was 32.4 µM (inactive). The GI50 [19] was > 100 µM (inactive), the GI50 [20] was 41.6 µM (inactive) and the GI50 [21] was 32.4 µM (inactive). For the same compound, the GI50 [22] was > 100 µM (inactive), the GI50 [23] was 33.3 µM (inactive) and the GI50 [24] was > 100 µM (inactive). The GI50 [25] was 23.1 µM (inactive), the GI50 [26] was > 100 µM and the GI50 [27] was > 100 µM (inactive). For the same compound, the GI50 [28] was > 100 µM (inactive), the GI50 [29] was 25.1 µM (inactive) and the GI50 [30] was 14.3 µM (inactive). For the same compound, the GI50 [31] was 30.4 µM (inactive), the GI50 [32] was 4.57 µM (inactive) and the GI50 [33] was 62.5 µM (inactive). For the same compound, the GI50 [34] was 26.1 µM (inactive), the GI50 [35] was 21.2 µM (inactive) and the GI50 [36] was 42.2 µM (inactive). The GI50 [38] was 62.1 µM (inactive), the GI50 [39] was > 100 µM (inactive) and the GI50 [40] was 17.1 µM (inactive). For the same compound, the GI50 [41] was 57.8 µM (inactive), the GI50 [42] was 30.8 µM (inactive) and the GI50 [43] was 21.2 µM (inactive). For the same compound, the GI50 [44] was 15.8 µM (inactive), the GI50 [45] was 69 µM (inactive) and the GI50 [46] was 18.4 µM (inactive). For the same compound, the GI50 [47] was 42.2 µM (inactive), the GI50 [48] was 42.3 µM (inactive) and the GI50 [49] was 28.6 µM (inactive). For the same compound, the GI50 [50] was > 100 µM (inactive), the GI50 [51] was 10.8 µM (inactive) and the GI50 [52] was 85.3 µM (inactive). The GI50 [53] was 49.5 µM (inactive), the GI50 [54] was > 10 µM (inactive) and the GI50 [56] was 10.9 µM (inactive).
